Publication PMC10059965, “Tsaokoic Acid: A New Bicyclic Nonene from the Fruits of Amomum tsao-ko with Acetylcholinesterase Inhibitory Activity” (Molecules, 2023)
Like-named read-outs stand apart in the source and are kept apart here.

Key:
AChE [1] = molecular target: T1, AChE (Homo sapiens, UniProt P22303); assay: biochemical; conditions: for inhibition at 2 µM: concentration 2 μM; for inhibition at 10 µM: concentration 10 μM; for inhibition at 50 µM: concentration 50 μM
[2] = previous studies; cited from earlier work
AChE [3] = molecular target: T1, AChE; conditions: previous in vitro and in vivo reports; cited from earlier work
[4] = Ellman method, pH 8.0, triplicate, read-out: IC50 (AChE-inhibitory activity)
[5] = read-out: Inhibition (%) of AChE

T1 sequence (P22303 32-614): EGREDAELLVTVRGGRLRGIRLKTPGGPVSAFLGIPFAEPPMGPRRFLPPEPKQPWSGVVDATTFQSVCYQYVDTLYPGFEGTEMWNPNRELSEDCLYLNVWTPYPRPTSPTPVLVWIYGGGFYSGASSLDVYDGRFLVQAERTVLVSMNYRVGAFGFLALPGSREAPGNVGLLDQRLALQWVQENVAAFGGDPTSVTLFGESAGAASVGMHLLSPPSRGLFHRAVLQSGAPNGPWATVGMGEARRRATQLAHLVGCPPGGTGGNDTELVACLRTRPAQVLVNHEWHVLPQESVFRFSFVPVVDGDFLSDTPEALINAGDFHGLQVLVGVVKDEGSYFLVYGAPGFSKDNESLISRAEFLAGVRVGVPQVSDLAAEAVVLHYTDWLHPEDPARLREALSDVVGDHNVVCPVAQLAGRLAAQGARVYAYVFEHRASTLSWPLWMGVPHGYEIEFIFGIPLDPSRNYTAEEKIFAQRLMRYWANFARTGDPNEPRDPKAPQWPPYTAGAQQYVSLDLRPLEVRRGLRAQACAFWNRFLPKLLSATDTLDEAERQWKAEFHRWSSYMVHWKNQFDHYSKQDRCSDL

| Compound | IC50 (AChE [1]; [4]) | inhibition at 2 µM (AChE [1]) | inhibition at 10 µM (AChE [1]) | inhibition at 50 µM (AChE [1]) | Antifungal activity [2] | IC50 (AChE [1]) | AChE-inhibitory activities (AChE [3]) | inhibition at 0.04 µM (AChE [1]; [5]) | inhibition at 0.2 µM (AChE [1]; [5]) | inhibition at 1 µM (AChE [1]; [5]) |
| --- | --- | --- | --- | --- | --- | --- | --- | --- | --- | --- |
| O=C(O)C1=CC[C@@H](O)[C@H]2CCC[C@@H]12 (relative stereo) [Compound 1, rel-(1R,5R,6S)-5-hydroxybicyclo[4.3.0]non-2-ene-2-carboxylic acid] | 32.8 µM | 2.09% | 29.5% | 70.9% |  |  |  |  |  |  |
| O=CC1=CC[C@@H](O)[C@H]2CCC[C@@H]12 (relative stereo) [Compound 2, rel-(1R,5R,6S)-5-hydroxybicyclo[4,3,0]non-2-ene-2-carboxaldehyde] | 41.7 µM | -6.07% | 7.74% | 62.1% | weak antifungal activity |  |  |  |  |  |
| COc1cc(C=O)ccc1O [Compound 3, vanillin] |  | -1.88% | 6.07% |  |  | 39.3 µM | has AChE-inhibitory activities |  |  |  |
| COc1cc(/C=C/C=C/C(=O)CCc2ccc(O)cc2)ccc1O [Compound 4, tsaokoarylone] | 31.1 µM | -11.9% | 30.8% | 78.7% |  |  |  |  |  |  |
| COc1ccc2cc3[n+](cc2c1OC)CCc1cc2c(cc1-3)OCO2 [berberine, reference compound] |  |  |  |  |  |  |  | 20.7% | 73.4% | 95.8% |
